# Source: PMC11819963, “In Vitro CO-Releasing and Antioxidant Properties of Sulfonamide-Based CAI-CORMs in a H2O2-Stimulated Human Achilles Tendon-Derived Cell Model” (Molecules, 2025)
# Where two headings read alike, the source gives them in different places.
# How the values were obtained:
# [1] = biological target: T1, hCA XII (Homo sapiens, UniProt O43570); design: method as in earlier work; conditions: alkyne precursors marked a in Table S1; cited from earlier work
# [2] = biological target: T2, hCA IX (Homo sapiens, UniProt Q16790); design: method as in earlier work; conditions: alkyne precursors marked a in Table S1; cited from earlier work
# [3] = biological target: T3, hCA II (Homo sapiens, UniProt P00918); design: method as in earlier work; conditions: alkyne precursors marked a in Table S1; cited from earlier work
# [4] = biological target: hCA I (Homo sapiens, UniProt P00915); conditions: cited from earlier work
# [5] = test system: Human Achilles tendon-derived tenocytes; test: cell metabolic activity (MTT test), basal conditions; assay type: cell-based; conditions: for cell metabolic activity (MTT): 6.25–50 µM, vs untreated control
# Description: (§3) Human Achilles tendon-derived tenocytes (#TEN-F) were purchased by ZenBio Inc. (Durham, NC, USA) and maintained in complete alpha-MEM (EuroClone, Milan, Italy) supplemented with 10% of heat-inactivated FBS (Gibco, Thermo Fisher Scientific, Waltham, MA, USA) and 1% penicillin/streptomycin (EuroClone, Milan, Italy) at 37 °C and 5% CO2 and used from passage 3 up to passage 6.
# (§4) Cells were seeded in 96-well plates (0.5 × 10^4/well) or 6-well plates (0.5 × 10^5/well) (ThermoFisher Scientific, Waltham, MA, USA) and left to adhere overnight at 37 °C and 5% CO2. For cell metabolic activity experiments (MTT test), tenocytes were treated with increasing concentrations of compounds (range 0–50 µM) for 24 and 48 h. Compounds were dissolved in DMSO to obtain a 200 mM stock solution, and they were afterwards diluted in complete alpha-MEM (DMSO final concentration = 0.1%) for further analyses. In a second set of MTT experiments, tenocytes were pre-incubated with 100 µM H2O2 for 3 h. After that, the pre-incubation medium was discarded and replaced with a fresh one containing the proper compound at increasing concentrations for 24 and 48 h. At the established time points, samples were processed for further analyses.
# (§5) Tenocytes were seeded in 96 well tissue culture-treated plates (Falcon®, Corning Incorporated, Brooklyn, NY, USA) at 0.5 × 10^4 cells/well. Untreated cells (0 µM) were set as control (100% of cell metabolic activity). At the established time points, the exposure media were replaced by fresh medium containing 3-(4,5-dimethylthiazol-2-yl)-2,5-diphenyltetrazolium bromide (MTT) 0.5 mg/mL (Merck, Darmstadt, Germany) and processed as elsewhere reported [18]. The optical density in each well was measured using a spectrophotometer (Thermo Fisher Scientific, Waltham, MA, USA) at a wavelength of 540 nm. Each experiment was performed three times in triplicates per experimental condition (n = 9).
# [6] = test system: H2O2-stimulated human Achilles tendon-derived tenocytes; test: cell cycle analysis by flow cytometry (propidium iodide); assay type: cell-based; conditions: 48 h, after H2O2 100 µM for 3 h
# Description: (§1) Compound A and acetazolamide were administered as reference compounds.
# The progression of the cell cycle was assessed by flow cytometry, as already reported. Briefly, after the pre-incubation with H2O2 (100 µM for 3 h) and the exposure time (48 h), approximately 0.5 × 10^5 cells/experimental condition were fixed with cold ethanol 70% v/v and afterwards stained with 1 mg/mL propidium iodide (PI) (final concentration 10 µg/mL) and 10 mg/mL RNAse (final concentration 100 µg/mL) and kept overnight at 4 °C in the dark. Each experiment was performed two times in triplicates per experimental condition (n = 6). Cell cycle profiles (1 × 10^4 events/sample) were finally analysed with a CytoFLEX flow cytometer (Beckman Coulter, Indianapolis, IN, USA), and data were quantified using the ModFit LT™ 4.0 software (De Novo Software, Glendale, CA, USA).
# [7] = test system: H2O2-stimulated human Achilles tendon-derived tenocytes; test: cell metabolic activity (MTT test), pre-incubation with H2O2; assay type: cell-based; conditions: 6.25–50 µM, after H2O2 100 µM for 3 h
# Description: as §3, §4, §5
# [8] = test system: H2O2-stimulated human Achilles tendon-derived tenocytes; test: collagen type I secretion (ELISA); assay type: cell-based; conditions: 48 h, after H2O2 100 µM for 3 h, compared to untreated cells, normalised on MTT
# Description: as §1
# Amounts of collagen type I secreted in supernatants harvested from 96 well plates were detected by a human collagen type 1 ELISA kit (Cosmo Bio Co., Ltd., Tokyo, Japan; cat. no. ACE-EC1-E105-EX). Samples were pipetted into suitably coated wells as described elsewhere. Each ELISA test was performed three times in duplicates per experimental condition (n = 6). The concentration of collagen type I (µg/mL) was calculated using a standard curve generated with a specific standard provided by the manufacturer by means of the Prism 5.0 software (GraphPad, San Diego, CA, USA).
# [9] = biological target: T2, hCA IX; test: stopped-flow CO2 hydrase assay, hCA IX; assay type: biochemical; conditions: mean from three assays, errors ±5–10%
# Description: (§2) The CO2 concentrations ranged from 1.7 to 17 mM for the determination of the kinetic parameters and inhibition constants. […] The uncatalysed rates were determined in the same manner and subtracted from the total observed rates. […] The inhibition constants were obtained by non-linear least-squares methods using PRISM 3 and the Cheng–Prusoff equation and represent the mean from at least three different determinations.
# [10] = biological target: T1, hCA XII; test: stopped-flow CO2 hydrase assay, hCA XII; assay type: biochemical; conditions: mean from three assays, errors ±5–10%
# Description: as §2
# [11] = test system: reduced myoglobin (deoxy-Mb); test: myoglobin carbonylation assay (CO release); design: species or system horse; conditions: for MbCO formed: after 210 min of incubation, 1:1 CORM–Mb ratio (about 20 μM CORM); for CO units released: after 300 min of incubation with Mb, 37 °C; for CO-release profile (MbCO formed over time): 1:1 and 1:6 CORM:Mb, up to 300 min, comparison within series
# Description: To determine the CO-releasing properties of the designed compounds, the myoglobin carbonylation assay was employed, with some deviations from the standard protocol, as previously reported. The analysed compounds were incubated with reduced myoglobin (deoxy-Mb), and spectra were recorded every 30 min up to 300 min. The release of CO was assessed by evaluating the formation of carbonylated myoglobin (Mb-CO) over time (Figure 3). […] The releasing properties of the compounds were also expressed as CO units released after 300 min of incubation with Mb, as reported in Figure S1 (Supplementary Information File).
# All the employed reagents were of analytical grade and acquired from Merck (Milan, Italy). Gaseous CO was obtained from Rivoira (Milan, Italy). A Shimadzu UV1900 UV-Vis Spectrophotometer from 275 to 700 nm at the scanning rate of 200 nm/min was used to record UV-Vis absorption spectra in a disposable plastic cuvette (path length 0.44 cm). The second derivative spectra were generated with the Origin Lab software, and the Savitzky–Golay method was applied using 25 data points for the differentiation process. Neither an increase nor a decrease in the number of points caused changes in the wavelength or in the bandwidth. Lyophilised horse heart Mb was dissolved in phosphate-buffered saline flushed with N2 (PBS, 0.01 M, pH 7.4 to a 20–22 μM final concentration). Two millilitres of this freshly prepared stock solution were placed in a cuvette to record the UV-Vis absorption spectrum of met-Mb. Next, the solutions were divided into two halves: 10 μL of sodium dithionite (30 mg/mL) was added to the first half (reference), and the UV–Vis spectrum of deoxy-Mb was registered. After that, the solution was flushed with CO gas, and the Mb-CO spectrum was acquired. Sodium dithionite was added to the second half (sample), and a spectrum was recorded. Afterwards, a CORM DMSO solution was added to a final CORM concentration of 1.67 μM, 3.33 μM or 20 μM and gently mixed. The solution was covered with 300 μL of light mineral oil to avoid CO escaping and oxygenation of Mb, and the absorption spectrum was recorded at t = 0. Spectra were acquired every 30 min for 300 min, keeping the sample at 37 °C. When necessary, a freshly prepared sodium dithionite solution was added. After 300 min, the total Mb concentration at the end of the assay was determined by flushing the sample with CO gas. Mb-CO concentration at each time point was determined, as previously reported. Each experiment was replicated three times, and the data were expressed as mean ± SEM.
# [12] = biological target: T3, hCA II; test: stopped-flow CO2 hydrase assay, hCA II; assay type: biochemical; conditions: mean from three assays, errors ±5–10%
# Description: as §2
# [13] = stopped-flow CO2 hydrase assay, cells marked a
# Chain of hCA I (P00915 whole entry): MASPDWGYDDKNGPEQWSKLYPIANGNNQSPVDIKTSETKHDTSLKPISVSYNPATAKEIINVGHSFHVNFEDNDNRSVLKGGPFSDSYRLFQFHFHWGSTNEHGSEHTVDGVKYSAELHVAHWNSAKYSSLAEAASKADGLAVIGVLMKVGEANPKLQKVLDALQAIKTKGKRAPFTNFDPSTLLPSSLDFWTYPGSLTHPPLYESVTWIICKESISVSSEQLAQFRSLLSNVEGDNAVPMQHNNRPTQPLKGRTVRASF
# T1 sequence (O43570 25-354): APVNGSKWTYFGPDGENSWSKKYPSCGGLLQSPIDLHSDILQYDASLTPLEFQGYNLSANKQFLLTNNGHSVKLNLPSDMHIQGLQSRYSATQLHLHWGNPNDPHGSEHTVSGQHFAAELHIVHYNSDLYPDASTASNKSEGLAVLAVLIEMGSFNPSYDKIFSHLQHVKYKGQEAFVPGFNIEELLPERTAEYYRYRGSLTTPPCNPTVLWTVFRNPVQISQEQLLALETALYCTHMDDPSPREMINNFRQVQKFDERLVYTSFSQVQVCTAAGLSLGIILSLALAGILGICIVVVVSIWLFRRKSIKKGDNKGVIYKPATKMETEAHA
Compound,cell metabolic activity (MTT) ([5]; 48 h exposure),cell cycle progression (H2O2-induced G2 increase) [6],cytotoxicity (MTT) ([7]; 24 h exposure),cytotoxicity (MTT) ([7]; 48 h exposure),collagen type I secretion [8],Ki [9],Ki [10],MbCO formed [11],Ki [12],cell metabolic activity (MTT) ([5]; 24 h exposure),CO-release profile (MbCO formed over time) [11],"Ki [4, 13]",further results
"C#CCN(CC#C)c1ccc(S(N)(=O)=O)cc1 [C, 4-(diprop-2′-ynylamino)benzenesulfonamide]",–,–,–,–,–,–,–,–,–,–,–,–,Ki [1]: 4.9 nM; Ki [2]: 9 nM; Ki [3]: 1780 nM; Ki ([4]; alkyne precursors marked a in Table S1): 6400 nM
"CC(=O)Nc1nnc(S(N)(=O)=O)s1 [AAZ, acetazolamide, reference compound]",still ineffective,ineffective,cytotoxicity at the highest dose,cytotoxic at the highest concentration,do not enhance the secretion,–,–,–,–,–,–,–,–
4-(Diprop-2′-ynylamino)benzenesulfonamide hexacarbonyldicobalt [1c],constantly effective on cell metabolic activity over the concentrations,weakly but significantly counteract the H2O2-induced G2 increase,–,–,weakly but significantly increases collagen type 1 secretion,6.2 nM,7.5 nM,3.66 µM,–,–,–,–,CO units released ([11]; 1:12 CORM:Mb ratio (1.67 μM CORM)): 2.3 CO units
"C#CCNc1ccc(S(N)(=O)=O)cc1.[C-]#[O+].[C-]#[O+].[C-]#[O+].[C-]#[O+].[C-]#[O+].[C-]#[O+].[Co].[Co] [1a, 4-(prop-2-ynylamino)benzenesulfonamide hexacarbonyldicobalt]",well increases cell metabolic activity at the lower concentrations,–,cytotoxic at the highest concentrations used,reveal cytotoxicity at the highest concentrations,dramatically increases its secretion almost three times,–,–,9.05 µM,215 nM,significantly increase cell metabolic activity,the fastest and most efficient releaser among the series,901 nM,KI hCA IX [9]: ineffective; CO units released ([11]; 1:6 CORM:Mb ratio (3.33 μM CORM)): 1.6 CO units
"C#CCNc1ccc(S(N)(=O)=O)cc1 [A, 4-(prop-2-ynylamino)benzenesulfonamide, reference compound]",still ineffective,ineffective,–,–,do not enhance the secretion,–,–,–,–,–,–,–,–
"C#CCOc1ccc(S(N)(=O)=O)cc1.[C-]#[O+].[C-]#[O+].[C-]#[O+].[C-]#[O+].[C-]#[O+].[C-]#[O+].[Co].[Co] [1b, 4-(Prop-2′-ynyloxy)benzenesulfonamide hexacarbonyldicobalt]",–,–,–,–,–,5.4 nM,0.9 nM,6.39 µM,40.9 nM,significantly increase cell metabolic activity,the most efficient,1340 nM,concentration at which cytotoxicity is seen (MTT) ([5]; 48 h exposure): ≥ 25 µM
